Measured values: ChEMBL document CHEMBL1201862, “PubChem BioAssay data set” (2004)
The source made the active and inactive calls.

Experiments:
[1] = target: Peroxisome proliferator-activated receptor gamma/Nuclear receptor coactivator 2 (Homo sapiens, UniProt P37231); type: functional;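 further: agonist potency for raising coactivator recruitment to the receptor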
[2] = target: Peroxisome proliferator-activated receptor gamma/Nuclear receptor coactivator 1 (Homo sapiens, UniProt P37231); type: functional;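 further: agonist potency as compounds enhance coactivator SRC-1 recruitment to PPARgamma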
[3] = target: Peroxisome proliferator-activated receptor gamma/Nuclear receptor coactivator 3 (Homo sapiens, UniProt P37231); type: functional;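 further: agonist potency for raising coactivator recruitment to the receptor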
[4] = target: T1, Calpain-2 catalytic subunit (Sus scrofa, UniProt P43367); assay: m-calpain protease blockers, concentration series – biochemical, fluorogenic peptide substrate, dose response (AID 1420); type: functional
T1 sequence (P43367 whole entry): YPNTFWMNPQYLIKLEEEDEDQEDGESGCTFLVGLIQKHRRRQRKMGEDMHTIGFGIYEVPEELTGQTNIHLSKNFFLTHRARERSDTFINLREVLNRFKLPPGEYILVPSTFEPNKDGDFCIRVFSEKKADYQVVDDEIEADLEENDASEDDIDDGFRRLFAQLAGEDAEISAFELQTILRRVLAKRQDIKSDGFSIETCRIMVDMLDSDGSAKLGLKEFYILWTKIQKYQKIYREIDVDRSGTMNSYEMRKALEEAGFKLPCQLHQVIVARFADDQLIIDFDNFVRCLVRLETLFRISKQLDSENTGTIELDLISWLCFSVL

[5] = target: Heat shock protein HSP 90-alpha (Homo sapiens, UniProt P07900); assay: Luminescence-based dose response biochemical high throughput screening assay for inhibitors of the Heat Shock Protein 90 (HSP90). [Related pubchem assays: 1831 (Summary AID.), 1846 (Confirmation screen.), 1789 (Primary screen.)]
[6] = Luminescence Cell-Based Dose Response to Identify Activators of 5'UTR Stem-Loop Driven Prion Protein mRNA Translation in H4-C Neuroglioblastoma Cells. [Related pubchem assays: 1829 (Project Summary), 1814 (Primary HTS)]; type: functional
[7] = Luminescence Cell-Based Dose Response HTS to Identify Activators of Luciferase Translation or Activity in H4 […] Cells. [Related pubchem assays: 1829 (Project Summary), 1814 (Primary HTS)]; type: functional
H4 = assay: Luminescence Cell-Based Dose Response HTS to Identify Activators of 5'UTR Stem-Loop Driven Prion Protein mRNA Translation in H4 Neuroglioblastoma Cells. [Related pubchem assays: 1829 (Project Summary), 1814 (Primary HTS)]; type: functional; settings: Homo sapiens
[8] = Luminescence Cell-Based Dose Response to Identify Activators of Luciferase Translation or Activity in H4-C Neuroglioblastoma Cells. [Related pubchem assays: 1829 (Project Summary), 1814 (Primary HTS)]; type: functional
[9] = Luminescence Cell-Based Dose Confirmation to Identify Activators of 5'UTR Stem-Loop Driven Alpha-Synuclein mRNA Translation in H4 Neuroglioblastoma Cells. [Related pubchem assays: 1829 (Project Summary), 1814 (Primary HTS)]; type: functional
[10] = Trypanosoma cruzi growth suppression in host cells – NIH3T3 host cells, beta-gal luminescence, confirmation (AID 2044); type: functional, cell-based;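 further: intracellular parasites grown in NIH/3T3 mouse fibroblasts as host cells; luminescent beta-galactosidase reporter signal from transgenic T. cruzi replicating inside host cells; inhibitors lower the luminescence signal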
[11] = NIH3T3 cell viability loss – ATP luminescence, mouse fibroblasts, counter-screen, dose response (AID 2010); type: functional, cell-based;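 further: cells exposed to compound for about 90 hours before reading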
Danio rerio = assay: In Vivo Angiogenesis Dose-Response Confirmation. [Related pubchem assays: 732 (Assay preceding this confirmatory assay.)]; type: functional, organism-based
[12] = Luminescence Cell-Based Dose Retest to Confirm Inhibitors of Cancer Stem Cells. [Related pubchem assays (depositor defined):AID2717, AID2721]; type: functional; settings: Homo sapiens
[13] = Luminescence-based cell-based high throughput dose response assay to identify activators of the DAF-12 from the parasite S. stercoralis (ssDAF-12).; type: functional
Cytochrome P450 3A4 = Cytochrome P450 3A4 (Homo sapiens, UniProt P08684);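 further: CYP3A4 tested as one member of a cytochrome P450 panel screen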
[14] = HPDE-C7 pancreatic duct cell viability loss – fluorescence, HTS (AID 430); type: functional, cell-based; settings: Homo sapiens
[15] = viability loss of HPDE-C7K cells – cell-based, fluorescence, HTS, primary screen (AID 431); type: functional; settings: Homo sapiens
[16] = target: T2, Short transient receptor potential channel 4 (Mus musculus, UniProt Q9QUQ5); assay: block of DAMGO-driven TRPC4 calcium entry – cell-based, HEK293 TRPC4/mu-opioid, Fluo-4 calcium, dose response (AID 434942); type: functional;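 further: potency of inhibitors blocking the TRPC4 calcium response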
T2 sequence (Q9QUQ5 whole entry): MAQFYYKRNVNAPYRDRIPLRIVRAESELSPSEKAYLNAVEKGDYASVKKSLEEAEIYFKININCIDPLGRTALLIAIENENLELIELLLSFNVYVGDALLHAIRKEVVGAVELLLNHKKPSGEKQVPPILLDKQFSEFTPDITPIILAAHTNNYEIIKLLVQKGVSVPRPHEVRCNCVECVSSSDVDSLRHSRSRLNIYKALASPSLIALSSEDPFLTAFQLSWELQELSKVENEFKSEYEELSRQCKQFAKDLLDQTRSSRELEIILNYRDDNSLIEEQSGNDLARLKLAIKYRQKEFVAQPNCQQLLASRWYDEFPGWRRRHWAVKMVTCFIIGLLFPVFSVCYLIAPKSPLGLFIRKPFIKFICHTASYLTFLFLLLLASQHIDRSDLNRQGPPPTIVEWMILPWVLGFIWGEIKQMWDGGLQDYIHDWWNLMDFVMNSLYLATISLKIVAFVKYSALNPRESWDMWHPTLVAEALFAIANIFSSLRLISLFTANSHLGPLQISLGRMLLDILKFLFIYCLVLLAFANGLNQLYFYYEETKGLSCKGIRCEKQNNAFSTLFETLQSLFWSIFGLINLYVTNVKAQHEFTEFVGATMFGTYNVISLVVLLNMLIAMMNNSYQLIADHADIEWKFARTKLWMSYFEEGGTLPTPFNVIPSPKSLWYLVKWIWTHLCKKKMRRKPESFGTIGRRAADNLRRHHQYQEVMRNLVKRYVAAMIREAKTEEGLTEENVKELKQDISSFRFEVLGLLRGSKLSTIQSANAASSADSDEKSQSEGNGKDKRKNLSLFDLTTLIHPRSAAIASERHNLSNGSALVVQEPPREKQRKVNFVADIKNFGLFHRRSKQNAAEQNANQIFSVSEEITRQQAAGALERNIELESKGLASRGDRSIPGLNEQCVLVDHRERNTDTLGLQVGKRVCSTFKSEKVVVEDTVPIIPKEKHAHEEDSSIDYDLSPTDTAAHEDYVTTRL

[17] = target: T3, Ubiquitin-conjugating enzyme E2 N (Homo sapiens, UniProt P61088); type: functional;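 further: Dose-response confirmation in a TR-FRET assay detecting UBC13-driven polyubiquitin chain formation, inhibition measured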
T3 sequence (P61088 whole entry): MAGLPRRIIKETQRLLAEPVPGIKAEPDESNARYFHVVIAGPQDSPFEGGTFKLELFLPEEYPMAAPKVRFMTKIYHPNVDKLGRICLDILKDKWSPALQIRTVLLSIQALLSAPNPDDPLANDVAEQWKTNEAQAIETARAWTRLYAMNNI

INS1 = assay: INS-1E survival protection against cytokine death – cell-based, luminescence, retest, dose response (AID 449756); type: functional; settings: Rattus norvegicus;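 further: cell death triggered by IL-1 beta plus TNF-alpha plus IFN-gamma mixture; protective hits raise ATP signal compared with cytokine alone wells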
Leucine aminopeptidase = target: T4, Leucine aminopeptidase (Plasmodium falciparum 3D7, UniProt Q8IL11); assay: P. falciparum M17LAP inhibitors, primary screen, biochemical, fluorogenic H-Leu-NHMec substrate, 1536-well (AID 1619); type: functional
T4 sequence (Q8IL11 whole entry): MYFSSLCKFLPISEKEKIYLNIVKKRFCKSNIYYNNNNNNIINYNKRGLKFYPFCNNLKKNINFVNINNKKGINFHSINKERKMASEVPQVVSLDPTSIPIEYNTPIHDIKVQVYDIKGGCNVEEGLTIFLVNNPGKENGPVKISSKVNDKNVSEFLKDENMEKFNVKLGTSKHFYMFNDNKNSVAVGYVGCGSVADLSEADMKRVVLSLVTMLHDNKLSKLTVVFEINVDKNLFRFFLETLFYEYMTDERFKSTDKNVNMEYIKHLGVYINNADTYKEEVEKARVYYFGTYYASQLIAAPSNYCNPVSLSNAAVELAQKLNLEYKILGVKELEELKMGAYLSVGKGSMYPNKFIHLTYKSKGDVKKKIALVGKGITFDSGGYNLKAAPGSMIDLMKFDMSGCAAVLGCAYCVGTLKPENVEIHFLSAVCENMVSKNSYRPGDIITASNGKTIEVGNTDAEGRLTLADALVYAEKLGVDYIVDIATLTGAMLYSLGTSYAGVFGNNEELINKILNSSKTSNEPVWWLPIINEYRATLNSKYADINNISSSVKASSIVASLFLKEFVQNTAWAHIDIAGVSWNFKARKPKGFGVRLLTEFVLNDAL

Aspartyl aminopeptidase = Aspartyl aminopeptidase (Plasmodium falciparum 3D7, UniProt Q8I2J3); assay: Counterscreen for inhibitors of M1 and M17 aminopeptidases: QFRET-based biochemical high throughput dose response assay for inhibitors of the Plasmodium falciparum M18 Aspartyl Aminopeptidase (PFM18AAP). [Related PubChem assays: 1619 (Screening assay (M17LAP inhibitors).), 1445 (Screening assay (M1AAP inhibitors).)]
Procathepsin L = Procathepsin L (Homo sapiens, UniProt P07711); assay: CTSL1 protease inhibition – biochemical, QFRET, 1536-well, counter-screen for M1/M17 aminopeptidase inhibitor project, dose response (AID 2214)
Sequence of Procathepsin L (P07711 whole entry): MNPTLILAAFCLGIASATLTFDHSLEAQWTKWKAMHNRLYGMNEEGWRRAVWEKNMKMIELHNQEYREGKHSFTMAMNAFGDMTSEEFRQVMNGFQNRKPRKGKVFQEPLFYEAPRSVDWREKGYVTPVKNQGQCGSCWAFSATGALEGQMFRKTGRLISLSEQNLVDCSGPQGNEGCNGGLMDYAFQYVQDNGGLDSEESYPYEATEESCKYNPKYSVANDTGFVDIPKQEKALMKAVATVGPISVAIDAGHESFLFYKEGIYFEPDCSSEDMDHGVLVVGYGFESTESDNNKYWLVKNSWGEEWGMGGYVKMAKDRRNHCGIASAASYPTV

Sequence of Peroxisome proliferator-activated receptor gamma/Nuclear receptor coactivator 2 (P37231 whole entry): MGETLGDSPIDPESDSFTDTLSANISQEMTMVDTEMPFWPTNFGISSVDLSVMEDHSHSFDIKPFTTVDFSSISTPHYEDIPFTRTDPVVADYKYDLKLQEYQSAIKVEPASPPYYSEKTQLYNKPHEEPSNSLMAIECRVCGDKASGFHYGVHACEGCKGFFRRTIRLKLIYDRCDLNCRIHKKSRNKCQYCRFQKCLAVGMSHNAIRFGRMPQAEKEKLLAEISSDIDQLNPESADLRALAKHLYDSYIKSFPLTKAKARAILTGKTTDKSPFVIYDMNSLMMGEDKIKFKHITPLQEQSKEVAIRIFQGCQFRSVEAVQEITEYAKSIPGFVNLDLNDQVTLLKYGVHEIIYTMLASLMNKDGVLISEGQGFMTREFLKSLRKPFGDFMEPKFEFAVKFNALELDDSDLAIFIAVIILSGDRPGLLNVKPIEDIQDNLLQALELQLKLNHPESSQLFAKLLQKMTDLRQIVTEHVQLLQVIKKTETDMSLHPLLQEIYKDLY
Sequence of Peroxisome proliferator-activated receptor gamma/Nuclear receptor coactivator 2 (Q15596 whole entry, further chain): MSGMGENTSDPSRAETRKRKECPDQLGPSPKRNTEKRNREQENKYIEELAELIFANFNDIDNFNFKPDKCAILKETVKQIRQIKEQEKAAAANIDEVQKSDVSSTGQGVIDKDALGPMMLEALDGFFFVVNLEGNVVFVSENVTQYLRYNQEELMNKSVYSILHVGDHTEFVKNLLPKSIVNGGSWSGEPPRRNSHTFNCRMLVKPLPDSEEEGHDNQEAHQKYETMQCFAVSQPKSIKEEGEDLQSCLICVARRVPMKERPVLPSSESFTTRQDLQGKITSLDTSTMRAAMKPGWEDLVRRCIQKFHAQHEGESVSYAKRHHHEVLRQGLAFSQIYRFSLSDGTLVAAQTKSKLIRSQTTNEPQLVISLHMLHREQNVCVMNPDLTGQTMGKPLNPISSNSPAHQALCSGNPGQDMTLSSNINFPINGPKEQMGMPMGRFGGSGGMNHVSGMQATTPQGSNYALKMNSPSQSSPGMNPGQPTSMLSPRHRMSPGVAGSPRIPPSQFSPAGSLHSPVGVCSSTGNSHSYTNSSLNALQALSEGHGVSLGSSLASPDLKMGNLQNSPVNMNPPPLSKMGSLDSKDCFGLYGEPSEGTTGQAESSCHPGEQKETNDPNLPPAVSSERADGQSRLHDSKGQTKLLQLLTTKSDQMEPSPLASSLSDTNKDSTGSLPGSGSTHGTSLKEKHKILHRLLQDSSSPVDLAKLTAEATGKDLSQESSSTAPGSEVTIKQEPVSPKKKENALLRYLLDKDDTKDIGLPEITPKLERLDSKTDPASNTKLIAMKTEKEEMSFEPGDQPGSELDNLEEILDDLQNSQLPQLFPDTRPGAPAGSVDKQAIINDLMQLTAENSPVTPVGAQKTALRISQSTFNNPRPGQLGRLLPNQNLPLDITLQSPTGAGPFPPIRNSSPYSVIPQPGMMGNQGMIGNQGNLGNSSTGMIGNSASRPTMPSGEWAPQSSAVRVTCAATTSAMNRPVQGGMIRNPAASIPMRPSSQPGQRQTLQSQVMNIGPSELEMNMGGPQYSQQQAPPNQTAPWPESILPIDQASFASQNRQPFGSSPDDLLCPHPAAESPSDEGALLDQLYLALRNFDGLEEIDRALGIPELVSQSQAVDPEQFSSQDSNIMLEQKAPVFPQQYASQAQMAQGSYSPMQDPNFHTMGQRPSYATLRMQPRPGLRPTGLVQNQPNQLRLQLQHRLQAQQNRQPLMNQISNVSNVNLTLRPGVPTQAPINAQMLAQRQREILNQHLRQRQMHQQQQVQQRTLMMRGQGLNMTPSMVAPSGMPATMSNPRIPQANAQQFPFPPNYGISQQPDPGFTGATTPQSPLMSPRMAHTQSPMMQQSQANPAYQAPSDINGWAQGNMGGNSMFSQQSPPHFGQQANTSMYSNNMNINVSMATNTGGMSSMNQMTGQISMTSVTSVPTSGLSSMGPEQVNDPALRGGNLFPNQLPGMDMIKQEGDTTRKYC
Sequence of Peroxisome proliferator-activated receptor gamma/Nuclear receptor coactivator 1 (P37231 whole entry): as the sequence (P37231 whole entry) above
Sequence of Peroxisome proliferator-activated receptor gamma/Nuclear receptor coactivator 1 (Q15788 whole entry, further chain): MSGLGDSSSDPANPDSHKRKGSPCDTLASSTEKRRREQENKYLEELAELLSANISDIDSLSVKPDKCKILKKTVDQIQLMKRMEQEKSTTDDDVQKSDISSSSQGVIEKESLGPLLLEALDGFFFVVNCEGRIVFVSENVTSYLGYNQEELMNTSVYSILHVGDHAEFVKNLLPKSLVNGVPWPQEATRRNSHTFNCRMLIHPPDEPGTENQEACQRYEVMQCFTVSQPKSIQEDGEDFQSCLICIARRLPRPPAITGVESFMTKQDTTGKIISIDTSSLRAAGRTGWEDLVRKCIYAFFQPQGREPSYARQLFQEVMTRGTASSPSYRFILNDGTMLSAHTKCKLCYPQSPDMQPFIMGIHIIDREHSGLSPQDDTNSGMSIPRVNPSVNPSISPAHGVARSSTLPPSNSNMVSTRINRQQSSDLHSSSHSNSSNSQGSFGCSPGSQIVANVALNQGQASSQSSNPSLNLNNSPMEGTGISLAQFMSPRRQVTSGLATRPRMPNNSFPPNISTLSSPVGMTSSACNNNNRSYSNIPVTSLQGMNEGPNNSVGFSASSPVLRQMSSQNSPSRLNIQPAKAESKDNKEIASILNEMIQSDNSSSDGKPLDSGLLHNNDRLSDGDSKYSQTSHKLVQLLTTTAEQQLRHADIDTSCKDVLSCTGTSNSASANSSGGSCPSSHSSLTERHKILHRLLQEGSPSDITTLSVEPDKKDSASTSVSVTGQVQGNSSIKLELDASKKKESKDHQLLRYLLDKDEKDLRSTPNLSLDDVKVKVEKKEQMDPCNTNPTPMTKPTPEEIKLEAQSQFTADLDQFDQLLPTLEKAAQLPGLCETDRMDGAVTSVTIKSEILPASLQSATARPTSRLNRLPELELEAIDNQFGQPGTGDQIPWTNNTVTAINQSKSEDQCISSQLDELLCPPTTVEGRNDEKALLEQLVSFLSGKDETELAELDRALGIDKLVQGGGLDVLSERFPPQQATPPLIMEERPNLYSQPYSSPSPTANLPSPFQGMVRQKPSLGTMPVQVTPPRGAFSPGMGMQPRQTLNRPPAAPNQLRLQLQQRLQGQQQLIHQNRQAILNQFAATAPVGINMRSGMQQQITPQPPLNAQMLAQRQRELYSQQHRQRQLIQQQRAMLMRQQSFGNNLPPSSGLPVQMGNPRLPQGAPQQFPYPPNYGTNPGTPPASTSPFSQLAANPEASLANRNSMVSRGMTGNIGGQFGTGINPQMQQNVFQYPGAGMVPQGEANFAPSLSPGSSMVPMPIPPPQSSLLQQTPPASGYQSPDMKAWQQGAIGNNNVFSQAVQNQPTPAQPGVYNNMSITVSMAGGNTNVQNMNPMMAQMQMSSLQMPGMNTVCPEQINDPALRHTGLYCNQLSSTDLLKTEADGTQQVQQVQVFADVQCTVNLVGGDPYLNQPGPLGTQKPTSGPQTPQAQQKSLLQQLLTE
Sequence of Cytochrome P450 3A4 (P08684 whole entry): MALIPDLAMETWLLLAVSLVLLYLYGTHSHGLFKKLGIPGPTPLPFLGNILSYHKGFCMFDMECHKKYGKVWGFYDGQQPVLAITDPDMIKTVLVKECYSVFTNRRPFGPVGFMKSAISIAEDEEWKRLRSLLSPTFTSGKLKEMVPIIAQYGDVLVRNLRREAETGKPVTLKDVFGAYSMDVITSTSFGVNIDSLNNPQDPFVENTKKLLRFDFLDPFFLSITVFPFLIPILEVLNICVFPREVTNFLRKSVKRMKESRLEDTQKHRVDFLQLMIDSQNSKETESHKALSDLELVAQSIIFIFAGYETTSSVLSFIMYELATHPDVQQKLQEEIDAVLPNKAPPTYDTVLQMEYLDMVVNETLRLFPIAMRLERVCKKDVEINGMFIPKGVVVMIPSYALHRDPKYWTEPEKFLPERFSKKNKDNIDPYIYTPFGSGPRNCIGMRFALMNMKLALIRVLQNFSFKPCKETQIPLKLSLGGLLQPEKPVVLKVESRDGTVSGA

CCc1cc2c(=O)c(-c3nc(C)cs3)coc2cc1OC(C)C(=O)NCCO (configuration not stated)
EC50 [1]: > 79.4 µM (not active)
EC50 [2]: > 79.4 µM (not active)
EC50 [3]: > 79.4 µM (not active)
IC50 [4]: 3.22 µM (not active)

COC(=O)c1ccc(N/C=C/C(=O)c2ccccc2)cc1
IC50 [5]: 3.73 µM (active)

COc1ccccc1-c1nc(-c2ccc(Br)cc2)no1
EC50 [6]: 0.427 µM (active)
EC50 [7]: 0.217 µM (active)
EC50 (H4): < 0.1 µM (active)
EC50 [8]: 0.378 µM (active)
EC50 [9]: 0.34 µM (active)

COC(=O)c1ccc(CN2CCCC(CCC(=O)NCc3ccc(C)o3)C2)cc1 (configuration not stated)
EC50 [10]: < 0.1 µM (active)
EC50 [11]: > 60 µM (not active)
EC50 (cells): 0.113 µM (active)

O=c1c2ccccc2nc2n1CCc1c-2[nH]c2ccccc12 [RUTAECARPINE]
IC50 (Danio rerio): 25.5 µM (not active)
AC50 [12]: 25.1 µM (active)
IC50 [13]: > 67.6 µM (inactive)
AC50 (Cytochrome P450 3A4): 3.98 µM (inconclusive)

Cc1ccc(S(=O)(=O)Nc2ccc3oc(=O)sc3c2)c(C)c1
EC50 [14]: 12.8 µM (active)
EC50 [15]: 13.7 µM (active)

COc1cc(CN(C)CC2CCCN(CCc3ccccc3F)C2)cc(Cl)c1OC (configuration not stated)
EC50 [10]: < 0.1 µM (active)
EC50 [11]: 11.1 µM (active)
EC50 [16]: 3.35 µM (active)
EC50 (cells): 0.263 µM (active)

Cc1[nH]n(-c2ccccc2)c(=O)c1N=Nc1ccc(C(N)=O)cc1
IC50 [5]: 20.9 µM (not active)

CC(C)(C)c1cc(NCCCn2ccnc2)n2ncc(-c3ccccc3)c2n1
EC50 [6]: 1.27 µM (active)
EC50 [7]: < 0.1 µM (active)
EC50 (H4): > 120 µM (not active)
EC50 [8]: 0.377 µM (active)
EC50 [9]: 0.735 µM (active)
IC50 [17]: > 20 µM (inactive)
AC50 (INS1): 11 µM (active)

Cc1ccccc1Oc1ccc(NC(=O)C2CC=CCC2C(=O)O)cc1 (configuration not stated)
IC50 (Leucine aminopeptidase): 1.33 µM (active)
IC50 (Aspartyl aminopeptidase): > 73.5 µM (not active)
IC50 (Procathepsin L): > 59.6 µM (not active)

CCOC(=O)c1sc2nccc(N(C)C)c2c1/N=C/N(C)C
EC50 [1]: > 79.4 µM (not active)
EC50 [2]: > 79.4 µM (not active)
EC50 [3]: > 79.4 µM (not active)
